Measurements as given in article PMC9253294, “Differential Activation of TRPM8 by the Stereoisomers of Menthol” (Frontiers in Pharmacology, 2022).

Assays:
[1] = set-up: method as in Hopp, 1993; Barel et al., 2009; conditions: human taste dilution studies; ref Hopp, 1993; Barel et al., 2009; cited from earlier work
mouse TRPM8 = target: T1, mouse TRPM8 (Mus musculus, UniProt Q8R4D5); assay: Whole-cell patch-clamp recordings of wild-type TRPM8 in transfected HEK293T cells; format: cell-based; conditions: for EC50: WT TRPM8, whole-cell, ~25°C; for maximum current activated: −80 mV, normalized to 2 mM (−)-menthol
T1 construct: expressed in transfected cells; host or cells: HEK293T
T1 sequence (Q8R4D5 whole entry): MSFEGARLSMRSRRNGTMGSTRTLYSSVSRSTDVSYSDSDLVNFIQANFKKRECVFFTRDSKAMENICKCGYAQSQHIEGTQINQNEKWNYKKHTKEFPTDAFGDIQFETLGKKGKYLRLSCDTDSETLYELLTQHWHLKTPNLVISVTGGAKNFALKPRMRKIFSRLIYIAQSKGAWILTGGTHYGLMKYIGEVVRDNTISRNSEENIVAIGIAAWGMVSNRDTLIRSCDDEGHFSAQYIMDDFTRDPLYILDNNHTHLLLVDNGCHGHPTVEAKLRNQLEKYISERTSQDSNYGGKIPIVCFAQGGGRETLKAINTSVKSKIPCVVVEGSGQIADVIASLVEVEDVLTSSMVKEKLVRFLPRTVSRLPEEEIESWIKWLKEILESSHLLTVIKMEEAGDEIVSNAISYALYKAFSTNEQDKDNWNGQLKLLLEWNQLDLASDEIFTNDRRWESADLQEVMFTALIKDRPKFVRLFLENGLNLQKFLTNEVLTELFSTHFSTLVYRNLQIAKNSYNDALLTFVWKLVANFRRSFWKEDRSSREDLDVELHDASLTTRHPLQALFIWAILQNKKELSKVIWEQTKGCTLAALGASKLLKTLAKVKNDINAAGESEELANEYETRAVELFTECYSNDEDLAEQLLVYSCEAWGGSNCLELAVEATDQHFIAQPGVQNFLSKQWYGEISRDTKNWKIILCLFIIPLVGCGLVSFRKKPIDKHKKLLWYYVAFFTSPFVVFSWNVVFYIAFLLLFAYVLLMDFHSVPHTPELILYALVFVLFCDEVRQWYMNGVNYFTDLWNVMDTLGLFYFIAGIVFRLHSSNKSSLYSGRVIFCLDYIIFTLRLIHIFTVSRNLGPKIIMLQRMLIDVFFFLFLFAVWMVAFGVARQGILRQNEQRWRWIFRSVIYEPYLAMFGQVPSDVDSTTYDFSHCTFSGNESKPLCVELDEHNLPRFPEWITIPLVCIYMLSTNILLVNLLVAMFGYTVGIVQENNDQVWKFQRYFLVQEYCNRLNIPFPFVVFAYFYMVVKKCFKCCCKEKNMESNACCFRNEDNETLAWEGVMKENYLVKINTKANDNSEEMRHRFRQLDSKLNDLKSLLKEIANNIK
Procedure: (§1) Murine TRPM8 was used in this study. […] Point mutations were made by Fast Mutagenesis Kit V2 (SBS Genetech). Primers were used to generate point mutations.
(§2) HEK293T cells were cultured in Dulbecco’s modified eagle medium supplemented (DMEM) with 10% fetal bovine serum and 1% penicillin-streptomycin solution at 37°C with 5% CO2. When cells grow up to 60%–70%, plasmids were transfected with lipofectamine 2000 following the manufacturer’s protocol. Patch-clamp recordings were performed 18–24 h after transfection.
(§3) Patch-clamp recordings were performed using a HEKA EPC10 amplifier driven by PatchMaster software (HEKA). Patch pipettes were prepared from borosilicate glass and fire-polished to a resistance of 4–6MΩ. A solution (pH 7.25) containing 130 mM NaCl, 0.2 mM EDTA, and 3 mM HEPES was used in both bath and pipette for recording. For whole-cell recording, cells were detached by trypsin and plated on the microscope cover glass for 30–60 min before the experiment. Transfected cells could be identified by green fluorescence. Cells were clamped at +80 mV and −80 mV for 350 ms, respectively, during recording, and the average current in the last 40 ms was performed. All recordings were performed at room temperature (∼25°C).
To perfuse (−)-menthol and other isomers during the patch-clamp recording, a rapid solution changer with a gravity-driven perfusion system was used (RSC-200, Bio-Logic). Each solution was delivered through a separate tube, so there was no mixing of solutions. The pipette tip was placed right in front of the perfusion outlet during recording to ensure the solution exchange was complete.
Data from whole-cell recordings were analyzed in Igor Pro (WaveMatrix). EC50 values were derived from fitting a Hill equation to the concentration–response relationship. Changes in EC50 by point mutation may be caused by either perturbation of ligand binding or channel gating or both. To distinguish these possibilities, the dissociation constant (K d) for ligand binding is estimated assuming the following gating scheme: C0↔KdC1↔LO, where L is the equilibrium constant for the final closed-to-open transition.
For TRPM8 activation by other stereoisomers, P o max was measured from the concentration–response curve and L was determined from P o max by L = P o max/(1 − P o max). Both K d and L contribute to the measured apparent affinity by the equation EC50 = K d/(1 + L).

[2] = system: residue I846 in the S4 of TRPM8; assay: Thermodynamic mutant cycle analysis (TMCA) with patch-clamp recordings, residue I846 (I846V mutant); format: cell-based, mouse; conditions: WT vs I846V
Procedure: as §1, §2
as §3, with “All recordings were performed at room temperature (∼25°C).” left out
(§4) Data from whole-cell recordings were analyzed in Igor Pro (WaveMatrix). […]
(§5) The P o of mouse TRPM8 activated by (−)-menthol was measured through single-channel recordings as in our previous study ([Xu et al., 2020]), and P o of TRPM8 mutant channels activated by (−)-menthol was estimated from noise analysis through whole-cell recordings. The mean current amplitude (I), the squared deviations in current amplitude from the mean value (σ ^2), and the single-channel current (i) were measured experimentally from a membrane patch of ion channels. Then, the number of ion channels clamped into that patch (N) is determined as N=I^2/i⋅I−σ^2.
For TRPM8 activation by other stereoisomers, P o max was measured from the concentration–response curve and L was determined from P o max by L = P o max/(1 − P o max). Both K d and L contribute to the measured apparent affinity by the equation EC50 = K d/(1 + L). […]

TRPM8 R842K mutant = target: T2, TRPM8 R842K mutant (Mus musculus, UniProt Q8R4D5, R842K); assay: Whole-cell patch-clamp recordings of the R842K mutant channel; format: cell-based; conditions: −80 mV
T2 construct: expressed in transfected cells; host or cells: HEK293T
T2 sequence (Q8R4D5 whole entry R842K): as the sequence (Q8R4D5 whole entry) above, with R842K counted along it
Procedure: as §1, §2, §3
To perfuse (−)-menthol and other isomers during the patch-clamp recording, a rapid solution changer with a gravity-driven perfusion system was used (RSC-200, Bio-Logic). […]

[3] = system: residue D802 in the S3 of TRPM8; assay: Thermodynamic mutant cycle analysis (TMCA) with patch-clamp recordings, residue D802; format: cell-based, mouse; conditions: cycle (−)-menthol vs (+)-neomenthol, WT vs D802 mutant
Procedure: as §1, §2
Patch-clamp recordings were performed using a HEKA EPC10 amplifier driven by PatchMaster software (HEKA). […] Transfected cells could be identified by green fluorescence. […]
as §4
as §5, with “N=I^2/i⋅I−σ^2. […]” for “N=I^2/i⋅I−σ^2.”

[4] = +80 mV, compared to (−)-menthol

Row | SMILES | cooling thresholds [1] | EC50 (mouse TRPM8; +80 mV) [µM] | coupling energy ([2]; +80 mV, cycle (−)-menthol vs (+)-neoisomenthol) [kT] | coupling energy ([2]; −80 mV, cycle (−)-menthol vs (+)-neoisomenthol) [kT] | Kd (binding affinity from gating scheme) (mouse TRPM8; [4]) | maximum current activated (mouse TRPM8) | activation of the R842K mutant (TRPM8 R842K mutant) | coupling energy ([2]; ±80 mV, cycle (−)-menthol vs (+)-neomenthol, threshold 1.5 kT) | coupling energy ([3]; +80 mV) [kT] | coupling energy ([3]; −80 mV) [kT] | L value (gating equilibrium constant) (mouse TRPM8; [4])
1 | CC(C)[C@@H]1CC[C@@H](C)C[C@H]1O [(−)-menthol] | lowest cooling thresholds | 62.6 ± 1.2 | – | – | – | – | – | – | – | – | –
2 | CC(C)[C@H]1CC[C@@H](C)C[C@H]1O [(+)-neoisomenthol] | much higher cooling thresholds | – | 3.25 ± 0.11 | 3.10 ± 0.18 | slightly decreased affinity | much reduced | – | – | – | – | –
3 | CC(C)[C@@H]1CC[C@@H](C)C[C@@H]1O [(+)-neomenthol] | – | 206 ± 11.4 | – | – | slightly decreased affinity | much reduced | cannot activate | large coupling energy values | 1.81 ± 0.10 | 2.12 ± 0.06 | significantly reduced
